Measurements published in patent US20250228757A1, “SUNSCREEN COMPOUNDS AND FORMULATIONS” (Oregon State University, priority 2024, published 2025).
Entries after “also recorded” stand apart in the source; their conditions may differ. Where two headings read alike, the source gives them in different places.

How the values were obtained:
[1] = test system: human skin equivalents; conditions: Carpenter et al. 2018; cited from earlier work
[2] = test system: HaCaT cells; test: Dose-response MTS viability assay without UVB; type: cell-based, human; conditions: 48 h, 3.125-50 μM, absence of UVB irradiation
Experimental: (§1) Immortalized keratinocyte HaCaT cells (ATCC, Manassas, VA, USA) were cultured in DMEM supplemented with 5% fetal bovine serum. Human primary epidermal keratinocytes (HPEKs) (ATCC) were cultured in EpiLife medium (ThermoFisher Scientific) supplemented with Human Keratinocyte Growth Supplement (ThermoFisher Scientific). HPEKs were maintained below ten passages. Cell lines were incubated in a humidified environment at 37° C. with 5% CO2.
(§2) For viability studies, HaCaT cells were seeded 5000 cells/well in clear 96-well plates (Corning, Corning, NY, USA). After 24 h, cells were treated with MBITC or MBA at 0, 3.125, 6.25, 12.5, 25, or 50 μM and incubated with the compounds for 48 h. Viability was then determined by MTS assay using CellTiter 96® AQueous One Solution Cell Proliferation Assay (Promega Corporation, Madison, WI, USA). Absorption was measured using Cytation® 5.0 Imaging Reader (Agilent, Santa Clara, CA, USA). HPEKs were seeded 5000 cells/well into white, opaque bottom 96-well plates (Greiner Bio-One) and incubated for 48 h. HPEKs were then treated with ethanol vehicle control or a 5-point half-log serial dilution of MBA starting at 50 μM. After 48 h, CellTiter-Glo® (Promega Corporation, Madison, WI) viability assays were performed per the manufacturer's instructions, and luminescence was read using a Synergy4 (Biotek, Winooski, VT) plate reader.

[3] = test system: human primary epidermal keratinocytes (HPEKs); test: Dose-response CellTiter-Glo viability assay without UVB; type: cell-based; conditions: 48 h, up to 50 μM, absence of UVB
Experimental: as §1, §2

[4] = UVB absorption assay; type: physicochemical; conditions: for UVB absorption: time needed to reach a 5 mJ/cm^2 dose: in ethanol, 1, 10, 25, 50 μM
Experimental: MBITC or MBA was diluted in ethanol at 0, 1, 10, 25, and 50 μM, added to separate wells of a 24-well plate (Corning, Corning, NY, USA), and irradiated with UVB light using a UV Transilluminator 2000 (Bio-Rad, Hercules, CA, USA) to reach 5 mJ/cm^2 or 10 mJ/cm^2. A Daavlin X-96 irradiance meter (Daavlin, Bryan, OH, USA) measured energy transmittance through the dish. Each well was separately irradiated, and the time was measured to reach the specified energy density.

[5] = test system: HaCaT cells; test: UV protection dose-response MTS assay; type: cell-based, human
Experimental: as §1
For UV protection dose-response assays, HaCaT cells were seeded 5000 cells/well into clear 96-well plates (Corning). After 24 h, cells were treated with MBITC or MBA at 0, 3.125, 6.25, 12.5, 25, or 50 µM and incubated for 12 h. Cells were washed in PBS and irradiated with 10 mJ/cm^2 UVB using a UV Transilluminator 2000. After irradiation, fresh media was added, cells incubated for 36 h, and viability was determined by MTS assay as before. HPEKs were seeded 5000 cells/well into black, opaque bottom 96-well plates (Greiner Bio-One, Monroe, NC, USA) and incubated for 48 h. Afterward, cells were treated with vehicle control or a 10-point half-log serial dilution of MBITC or MBA starting at 50 μM and incubated for 12 h. Before irradiation, the conditioned cell culture medium was re-moved from each well, retained, and PBS containing the same dose of EtOH or the compounds was added to the wells. Cells were irradiated with a 10 mJ/cm^2 dose using UVB TL 20W/12 RS M3 lights (Philips, Amsterdam, Netherlands). The dose of UVB was quantified using an IL1400A NIST Traceable Photometer (International Light, Peabody, MA, USA). Following irradiation, the PBS was aspirated from the wells, and conditioned media was added. After 36 h, CYQUANT® (ThermoFisher Scientific) assays were performed per the manufacturer's instructions, and fluorescent signal read using a Synergy4® (Biotek, Winooski, VT) plate reader. Cell counts were extrapolated from a standard curve of fluorescent signal activity vs. HPEK cell counts. Time kinetics involved the same compound and UVB treatment scheme as before, but CYQUANT® assays were performed at 24, 48, 72, or 96 h post-UVB irradiation.

[6] = test system: human primary epidermal keratinocytes (HPEKs); test: UV protection CyQuant cell count assay (dose-response and time kinetics); type: cell-based; conditions: 10 mJ/cm^2 UVB
Experimental: as §1
For UV protection dose-response assays, HaCaT cells were seeded 5000 cells/well into clear 96-well plates (Corning). After 24 h, cells were treated with MBITC or MBA at 0, 3.125, 6.25, 12.5, 25, or 50 µM and incubated for 12 h. Cells were washed in PBS and irradiated with 10 mJ/cm^2 UVB using a UV Transilluminator 2000. After irradiation, fresh media was added, cells incubated for 36 h, and viability was determined by MTS assay as before. HPEKs were seeded 5000 cells/well into black, opaque bottom 96-well plates (Greiner Bio-One, Monroe, NC, USA) and incubated for 48 h. […] The dose of UVB was quantified using an IL1400A NIST Traceable Photometer (International Light, Peabody, MA, USA). […] After 36 h, CYQUANT® (ThermoFisher Scientific) assays were performed per the manufacturer's instructions, and fluorescent signal read using a Synergy4® (Biotek, Winooski, VT) plate reader. […]

[7] = test system: cyclobutane pyrimidine dimers (CPDs) in HPEKs; test: Immunocytochemistry for cyclobutane pyrimidine dimers after UVB; type: cell-based, human; conditions: 12 h treatment, 5 mJ/cm^2 UVB
Experimental: HPEKs were cultured to 80% confluence in 6-well plates containing gelatin-coated coverslips and treated with ethanol vehicle control or MBA. After 12 h, the conditioned cell culture medium was removed, retained, and PBS containing EtOH or MBA was added to each well. Plates were then irradiated with 5 mJ/cm^2 UVB, PBS removed, conditioned media re-added, and incubated for 24 h. Cells were then fixed in 75% methanol/25% acetic acid, washed with 70% EtOH, and DNA denatured in 70 mM NaOH (in 70% EtOH). Wells were then washed 3 times with PBS and denaturation quenched with 100 mM Tris —HCl (in 70% EtOH). Cells were then blocked with 10% normal goat serum (NGS) in PBS-T and incubated overnight at 4° C. with α-thymine dimer primary antibody (1:1000, Kamiya Bio-medical, Matsumoto, Nagano, Japan) in NGS blocking buffer. […] Corrected total cellular fluorescence (CTCF) was quantified using the ImageJ software package as described previously, except only nuclear CTCF for CPD staining was quantified and nuclei were selected for ROIs using manual thresholding for each field (Carpenter et al., J Invest Dermatol 2022, 142:1903-1911). For all quantifications, cells on the edges of each field were excluded.

[8] = test system: p-γH2A.X in HPEKs; test: Immunoblotting for p-γH2A.X after UVB; type: cell-based, human; conditions: 5 mJ/cm^2 UVB; for p-γH2A.X reduction: 1 μM (lowest tested dose); for p-γH2A.X staining: 25 and 50 μM (higher concentrations)
Experimental: HPEKs were cultured to 80% confluence in 6-well plates and treated with ethanol vehicle control or MBA. Cells were then irradiated in the same manner as immunocytochemistry samples. After 36 h, cells were harvested by scraping into cold PBS, centrifuged, pellet resuspended in denaturing SDS lysis buffer, boiled, and sonicated as described previously (Carpenter et al., Mol Carcinog 2019, 58:1680-1690). Samples were normalized to protein content as determined by BCA Assay (ThermoFisher Scientific). SDS-PAGE was then performed using 10% gels and transferred to a 0.45 μm nitrocellulose membrane (GE Healthcare, Chicago, IL, USA). Blots were blocked for 1 h in 5% nonfat dry milk in TBS-T and incubated with α-p-γH2A.X antibody (1:1000, Cell Signaling Technology, Danvers, MA, USA) or Actin (1:2000, Bethyl Laboratories, Inc., Montgomery, TX, USA) in 5% bovine serum albumin in TBS-T overnight at 4° C. The next day, blots were incubated with HRP-conjugated Goat anti-rabbit IgG or Goat anti-mouse IgG secondary antibodies (1:2000, Calbiochem, San Diego, CA, USA) for 1 h. The immunoblots were developed using chemiluminescent reagents (GE Healthcare) and imaged with a MyECL imager (ThermoFisher Scientific).

[9] = UV spectra; type: physicochemical; conditions: UV spectrum
[10] = Solubility; type: physicochemical
[11] = test system: HPEKs; conditions: previous study, absence of UVB; cited from earlier work
[12] = HaCaT, 12 h treatment, 10 mJ/cm^2 UVB, MTS after 36 h

Row | Compound | UVB-induced DNA damage, proliferation, and matrix-metalloproteinase expression [1] | cytotoxicity (viability, MTS) [2] | cytotoxicity (viability, CellTiter-Glo) [3] | UVB absorption: time needed to reach a 5 mJ/cm^2 dose [4] | cytotoxic effects in the presence of UVB light [5, 12] | protective effect, time kinetics ([6]; incubation up to four days) | prevention of UV-induced loss in proliferation (dose-response) ([6]; 12 h treatment, CyQuant) | intensity of the CPD staining (CTCF) [7] | total number of CPD+ cells vs vehicle control [7] | p-γH2A.X reduction [8] | p-γH2A.X staining [8] | λmax [9] [nm] | solubility in ethanol [10] | UVB absorption capacity, compared ([4]; time needed to reach 5 or 10 mJ/cm^2) | cytotoxic effects in the presence of UVB light [5] | protection from UVB-induced loss in proliferation [5, 12] | cytotoxic effects in HPEKs [11]
1 | COc1cccc(CCC#N)c1 [MPACN, 3-methoxybenzyl acetonitrile] | reduce |  |  |  |  |  |  |  |  |  |  |  |  |  |  |  | 
2 | CCCCCCCCCCCCCC/C=C\CCCC(=O)NCc1cccc(OC)c1 [MBA, (Z)—N-(3-methoxybenzyl)eicos-5-enamide] |  | little to no effect | not cytotoxic at the tested doses | only showed similar activity at a single concentration of 25 μM | did not exhibit the same cytotoxic effects as the parental compound | did not reveal a protective effect | had the same effect as in HaCaT cells | substantially decreased | small but significant difference | trend of reduced p-γH2A.X | lack of elevated p-γH2A.X | 273 | ethanol soluble |  |  |  | 
3 | COc1cccc(CN=C=S)c1 [MBITC, 3-methoxybenzyl isothiocyanate] | reduce |  |  | sufficient to increase the time needed to reach a 5 mJ/cm^2 dose at every tested concentration except 50 μM, where the time significantly decreased |  |  |  |  |  | less reduction; also recorded: trend of reduced p-γH2A.X | trend of increased p-γH2A.X staining compared to MBA | 273 |  | more UVB absorption capacity than MBA | displayed cytotoxic effects in the presence of UVB light | did not reverse the loss of proliferation | exhibited cytotoxic effects
